Measured values published in patent US8877707B2, “Inhibitors of HCV NS5A” (Presidio Pharmaceuticals, Inc., priority 2010, dated 2014).

What follows are compounds tested on HCV genotype 1b replicon in Huh 7 cells (assay: HCV replicon assay (1b_Huh-Luc/Neo-ET cell line, luciferase readout)). Conditions: Hepatitis C virus, Huh-7; HCV 1b replicon; read-out: Inhibition of HCV genotype 1b.
Assay type: cell-based
Procedure: Biological activity of the compounds of the invention was determined using an HCV replicon assay. The 1b_Huh-Luc/Neo-ET cell line persistently expressing a bicistronic genotype 1b replicon in Huh 7 cells was obtained from ReBLikon GMBH. This cell line was used to test compound inhibition using luciferase enzyme activity readout as a measurement of compound inhibition of replicon levels.
On Day 1 (the day after plating), each compound is added in triplicate to the cells. Plates incubated for 72 h prior to running the luciferase assay. Enzyme activity was measured using a Bright-Glo Kit (cat. number E2620) manufactured by Promega Corporation. The following equation was used to generate a percent control value for each compound. % Control=(Average Compound Value/Average Control)*100
The EC50 value was determined using GraphPad Prism and the following equation: Y=Bottom+(Top−Bottom)/(1+10^((Log IC50−X)*HillSlope))
EC50 values of compounds are repeated several times in the replicon assay.

Structure (SMILES) | EC50
COC(=O)N[C@H](C(=O)N1CCCC[C@H]1c1ncc(-c2ccc(-c3ccc4cc(-c5cnc([C@@H]6CCCN6C(=O)[C@@H](NC(=O)OC)C6CCOCC6)[nH]5)ccc4n3)cc2)[nH]1)C1CCOCC1 [compound 456] | < 1 nM
COC(=O)N[C@H](C(=O)N1CCC[C@H]1CNC(=O)c1ccc(-c2ccc3cc(-c4cnc([C@@H]5CCCN5C(=O)[C@@H](NC(=O)OC)C(C)C)[nH]4)ccc3n2)cc1)C(C)C [compound 544] | < 1 nM
COC(=O)N[C@H](C(=O)N1CCC[C@H]1c1ncc(-c2ccc3cc(-c4cc5[nH]c([C@@H]6CCCN6C(=O)[C@@H](NC(=O)OC)C(C)C)nc5cn4)ccc3c2)[nH]1)C(C)C [compound 527] | < 1 nM
COC(=O)N[C@H](C(=O)N1CCC[C@H]1CNC(=O)c1cnc2cc(-c3ccc4c(ccc5nc([C@@H]6CCCN6C(=O)[C@@H](NC(=O)OC)C(C)C)[nH]c54)c3)ccc2c1)C(C)C [compound 550] | 1 to 9.9 nM
COC(=O)N[C@H](C(=O)N1CCC[C@H]1C(=O)N[C@@H](C)c1ccc(-c2ccc3cc(-c4cnc([C@@H]5CCCN5C(=O)[C@@H](NC(=O)OC)[C@@H](C)OC)[nH]4)ccc3c2)cc1)[C@@H](C)OC [compound 558] | < 1 nM
COC(=O)N[C@H](C(=O)N1CCC[C@H]1c1ncc(-c2ccc3cc(-c4ccc5nc([C@@H]6CCCN6C(=O)[C@@H](NC(=O)OC)C6CC6)[nH]c5n4)ccc3c2)[nH]1)C1CC1 [compound 516] | < 1 nM
COC(=O)N[C@H](C(=O)N1CCC[C@H]1C(=O)Nc1ccc(-c2ccc3cc(-c4cnc([C@@H]5CCCN5C(=O)[C@@H](NC(=O)OC)C(C)C)[nH]4)ccc3c2)cc1)C(C)C [compound 571] | < 1 nM
COC[C@H](NC(=O)OC)C(=O)N1CCC[C@H]1c1ncc(-c2ccc3cc(-c4ccc5nc([C@@H]6CCCN6C(=O)[C@@H](NC(=O)OC)C(C)C)[nH]c5c4)ccc3c2)[nH]1 [compound 513] | < 1 nM
COC(=O)N[C@H](C(=O)N1CCC[C@H]1c1ncc(-c2ccc(-c3ccc4cc(-c5cnc([C@@H]6CCCN6C(=O)[C@@H](NC(=O)OC)[C@@H](C)OC)[nH]5)ccc4n3)cc2)[nH]1)[C@@H](C)OC [compound 482] | < 1 nM

Same assay, conditions: Hepatitis C virus; Table 1; genotype 1b replicon, Huh 7 cells, 72 h, luciferase; read-out: Inhibition of HCV genotype 1b

Structure (SMILES) | EC50
COC(=O)N[C@H](C(=O)N1CCC[C@H]1c1ncc(-c2ccc(-c3ccc4cc(-c5c[nH]c([C@@H]6CCCN6C(=O)[C@H](NC(=O)OC)c6ccccc6)n5)cnc4c3)cc2)[nH]1)C(C)C [compound 45] | < 1 nM
COC(=O)N[C@@H](C(=O)N1CCC[C@H]1c1nc(-c2ccc3cc(-c4ccc(-c5cnc([C@@H]6CCCN6C(=O)[C@H](NC(=O)OC)C(C)C)[nH]5)cc4)ccc3c2)c[nH]1)C(C)C [compound 2] | 1 to 9.9 nM
COC(=O)N[C@H](C(=O)N1CCC[C@H]1c1ncc(-c2ccc3cc(-c4ccc5nc([C@@H]6CCCN6C(=O)[C@@H](NC(=O)OC)C(C)C)[nH]c5c4)ccc3c2)[nH]1)C(C)C [compound 174] | < 1 nM
COC(=O)N[C@H](C(=O)N1CCC[C@H]1c1ncc(-c2ccc3cc(-c4ccc(-c5cnc([C@@H]6CCCN6C(=O)[C@@H](c6ccccc6)N6CCOCC6)[nH]5)cc4)ccc3c2)[nH]1)C(C)C [compound 116] | < 1 nM
COC(=O)N[C@H](C(=O)N1CCC[C@H]1c1nc(-c2ccc3nc(-c4ccc(-c5cnc([C@@H]6CCCN6C(=O)[C@@H](NC(=O)OC)C(C)C)[nH]5)cc4)cc(OC)c3c2)c[nH]1)C(C)C [compound 79] | < 1 nM
COC(=O)N[C@H](C(=O)N1CCC[C@H]1c1ncc(-c2ccc(-c3nc4cc(-c5cnc([C@@H]6CCCN6C(=O)[C@@H](NC(=O)OC)C(C)C)[nH]5)ccc4n3C)cc2)[nH]1)C(C)C [compound 232] | < 1 nM
COC(=O)N[C@@H](C(=O)N1CCC[C@H]1c1ncc(-c2ccc(-c3nc4ccc(-c5cnc([C@@H]6CCCN6C(=O)[C@H](NC(=O)OC)c6ccccc6)[nH]5)cc4o3)cc2)[nH]1)c1ccccc1 [compound 235] | < 1 nM
COC(=O)N[C@H](C(=O)N1CCC[C@H]1c1nc2ccc(-c3cccc4c(-c5cnc([C@@H]6CCCN6C(=O)[C@H](NC(=O)OC)c6ccccc6)[nH]5)cccc34)cc2[nH]1)C(C)C [compound 208] | < 1 nM
COC(=O)N[C@H](C(=O)N1CCC[C@H]1c1nc(-c2ccc3nc(-c4ccc(-c5cnc([C@@H]6CCCN6C(=O)[C@H](NC(=O)OC)c6ccccc6)[nH]5)cc4F)ccc3c2)c[nH]1)C(C)C [compound 107] | < 1 nM
COC(=O)N[C@H](C(=O)N1CCC[C@H]1c1nc(-c2ccc3cc(-c4ccc(-c5cnc([C@@H]6CCCN6C(=O)[C@@H](NC(=O)OC)C(C)C)[nH]5)cc4)ccc3n2)c[nH]1)C(C)C [compound 102] | < 1 nM
COC(=O)N[C@H](C(=O)N1CCC[C@H]1c1nc2ccc(-c3ccc4nc(-c5ccc6nc([C@@H]7CCCN7C(=O)[C@@H](NC(=O)OC)C(C)C)[nH]c6c5)ccc4c3)cc2[nH]1)C(C)C [compound 280] | < 1 nM
COC(=O)N[C@H](C(=O)N1CCC[C@H]1c1nc2ccc(-c3cccc4c(-c5cnc([C@@H]6CCCN6C(=O)[C@@H](NC(=O)OC)C6CCOCC6)[nH]5)cccc34)cc2[nH]1)C(C)C [compound 215] | < 1 nM
COC(=O)N[C@H](C(=O)N1CCC[C@H]1c1nc(-c2ccc3nc(-c4ccc(-c5cnc([C@@H]6CCCN6C(=O)[C@@H](NC(=O)OC)C(C)C)[nH]5)nc4)ccc3c2)c[nH]1)C(C)C [compound 53] | < 1 nM
CCNC(=O)N[C@@H](C(=O)N1CCC[C@H]1c1ncc(-c2ccc(-c3nc4ccc(-c5cnc([C@@H]6CCCN6C(=O)[C@@H](NC(=O)OC)C(C)C)[nH]5)cc4o3)cc2)[nH]1)c1ccccc1 [compound 257] | < 1 nM
COC(=O)N[C@H](C(=O)N1CCC[C@H]1c1ncc(-c2ccc3nc(-c4ccc(-c5cnc([C@@H]6CCCN6C(=O)[C@H](NC(=O)OC)c6ccccc6)[nH]5)cc4)oc3c2)[nH]1)C(C)C [compound 255] | < 1 nM
COC(=O)N[C@H](C(=O)N1CCC[C@H]1c1ncc(-c2ccc(-c3ccc4cc(-c5cnc([C@@H]6CCCN6C(=O)[C@H](NC(=O)OC(C)(C)C)c6ccccc6)[nH]5)ccc4n3)c(F)c2)[nH]1)C1CCOCC1 [compound 136] | < 1 nM
COC(=O)N[C@H](C(=O)N1CCC[C@H]1c1nc2ccc(-c3ccc4cc(-c5cnc([C@@H]6CCCN6C(=O)[C@H](NC(=O)OC)c6ccccc6)[nH]5)cnc4c3)cc2[nH]1)C(C)C [compound 195] | < 1 nM
COC(=O)N[C@H](C(=O)N1CCC[C@H]1c1ncc(-c2cccc3c(-c4ccc5nc([C@@H]6CCCN6C(=O)[C@@H](NC(=O)OC)C(C)C)[nH]c5c4)cccc23)[nH]1)C(C)C [compound 207] | < 1 nM
COC(=O)N[C@H](C(=O)N1CCC[C@H]1c1nc(-c2ccc3cc(-c4ccc(-c5cnc([C@@H]6CCCN6C(=O)[C@H](NC(=O)OC6CCOCC6)c6ccccc6)[nH]5)cc4)ccc3c2)c[nH]1)C1CCOCC1 [compound 113] | < 1 nM
COC(=O)N[C@H](C(=O)N1CCC[C@H]1c1nc2ccc(-c3ccc4cc(-c5cnc([C@@H]6CCCN6C(=O)[C@@H](c6ccccc6)N(C)C)[nH]5)ccc4c3)cc2[nH]1)C(C)C [compound 182] | < 1 nM
COC(=O)N[C@H](C(=O)N1CCC[C@H]1c1ncc(-c2ccc3cc(-c4ccc5nc([C@@H]6CCCN6C(=O)[C@@H](NC(=O)OC)C6CCOCC6)[nH]c5c4)ccc3c2)[nH]1)C1CCOCC1 [compound 203] | < 1 nM
CCNC(=O)N[C@@H](C(=O)N1CCC[C@H]1c1nc(-c2ccc3nc(-c4ccc(-c5cnc([C@@H]6CCCN6C(=O)[C@@H](NC(=O)OC)C(C)C)[nH]5)cc4)ccc3c2)c[nH]1)c1ccccc1 [compound 37] | < 1 nM
COC(=O)N[C@H](C(=O)N1CCC[C@H]1c1ncc(-c2ccc(-c3ccc4cc(-c5c[nH]c([C@@H]6CCCN6C(=O)[C@H](NC(=O)N6CC[C@H](O)C6)c6ccccc6)n5)ccc4c3)cc2)[nH]1)C(C)C [compound 15] | < 1 nM
COC(=O)N[C@H](C(=O)N1CCC[C@H]1c1nc(-c2ccc3cc(-c4ccc(-c5cnc([C@@H]6CCCN6C(=O)[C@H](NC(=O)OC)c6ccccc6)[nH]5)cc4)ccc3c2)c[nH]1)C1CCOCC1 [compound 99] | < 1 nM

Same assay, conditions: Hepatitis C virus; Table 2; genotype 1b replicon, Huh 7 cells, 72 h, luciferase; read-out: Inhibition of HCV genotype 1b

Structure (SMILES) | EC50
COC(=O)N[C@H](C(=O)N1CC[C@H](O)[C@H]1c1ncc(-c2ccc3cc(-c4ccc(-c5cnc([C@@H]6CCCN6C(=O)[C@@H](NC(=O)OC)C(C)C)[nH]5)cc4)ccc3c2)[nH]1)C(C)C [compound 306] | < 1 nM
COC(=O)N[C@H](C(=O)N1CCC[C@H]1c1ncc(-c2ccc(-c3ccc4cc(-c5cnc([C@@H]6CSCCN6C(=O)[C@@H](NC(=O)OC)C(C)C)[nH]5)ccc4c3)cc2)[nH]1)C(C)C [compound 308] | < 1 nM
COC(=O)NC(C(=O)N1CCC[C@H]1c1ncc(-c2ccc3cc(-c4ccc(-c5cnc([C@@H]6CCCN6C(=O)[C@H](NC(=O)OC)c6ccccc6)[nH]5)cc4)ccc3c2)[nH]1)[C@@H](C)O (stereo partly drawn) [compound 320] | < 1 nM
COC(=O)N[C@H](C(=O)N1CCC[C@H]1c1ncc(-c2ccc(-c3ccc4cc(-c5cnc([C@@H]6CCCN6C(=O)[C@@H](NC(=O)OC)C(C)C)[nH]5)ccc4c3)c(C#N)c2)[nH]1)C(C)C [compound 309] | < 1 nM
COC[C@H](NC(=O)OC)C(=O)N1CCC[C@H]1c1ncc(-c2ccc3cc(-c4ccc5nc([C@@H]6COCCN6C(=O)[C@H](COC)NC(=O)OC)[nH]c5c4)ccc3c2)[nH]1 [358-1] | < 1 nM
COC(=O)N[C@H](C(=O)N1CCC[C@H]1c1ncc(-c2ccc3cc(-c4ccc(-c5cnc([C@@H]6CCCN6C(=O)[C@H](NC(=O)OC)c6ccccc6)[nH]5)cn4)ccc3c2)[nH]1)C1CCOCC1 [compound 337] | < 1 nM
